From EP4186514A1, “PHARMACEUTICAL COMPOSITION FOR PREVENTING OR TREATING CHOLANGITIS OR LIVER DISEASE CAUSED BY CHOLANGITIS COMPRISING ADENOSINE DERIVATIVE” (Future Medicine Co., Ltd., priority 2021, dated 2023)

What was measured:
A3 adenosine receptor = biological target: T1, A3 adenosine receptor (Homo sapiens, UniProt P0DMS8); assay: Radioligand binding affinity, A3 adenosine receptor ([125I]AB-MECA, CHO cells); set-up: % hA3: dose or concentration left out as unconfirmed; details: for Ki: nM ± SEM, read-out: Ki(nM) hA3
T1 construct: expressed in transfected cells; host or cells: CHO cells (ATCC No. CCL-61)
T1 sequence (P0DMS8 1-318): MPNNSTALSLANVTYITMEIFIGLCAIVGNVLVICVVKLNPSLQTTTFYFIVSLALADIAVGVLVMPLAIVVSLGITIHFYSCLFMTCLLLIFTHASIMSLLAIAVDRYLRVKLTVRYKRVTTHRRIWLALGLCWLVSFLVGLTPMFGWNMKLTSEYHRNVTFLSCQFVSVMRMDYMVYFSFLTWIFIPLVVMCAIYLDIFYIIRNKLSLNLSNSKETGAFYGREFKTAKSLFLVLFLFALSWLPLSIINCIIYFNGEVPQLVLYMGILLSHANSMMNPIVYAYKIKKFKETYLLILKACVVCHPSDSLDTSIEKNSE
Method: (§1) CHO cells (ATCC No. CCL-61), in which A1 and A3 adenosine receptors were expressed, were cultured in F-12 media (Gibco, U.S.A.) supplemented with 10% fetal bovine serum (FBS) and penicillin/streptomycin (100 units/ml and 100 g/ml), at 37° C. in a 5% CO2 atmosphere. […] Incubation for 1 hr in a 37° C. incubator was followed by rapid filtration in a vacuum using a cell collector (TOMTEC, U.S.A.). Subsequently, the test tubes were washed three times with 3 ml of the buffer before radioactivity was measured using a γ-counter. […] Ki for binding affinity was determined by subtracting the non-specific binding value from the total binding value. On the basis of the specific binding values, the samples were analyzed for binding affinity to various adenosine receptors.

A1 adenosine receptor = biological target: T2, A1 adenosine receptor (Homo sapiens, UniProt P30542); assay: Radioligand binding affinity, A1 adenosine receptor ([3H]CCPA, CHO cells); set-up: % hA1: dose or concentration left out as unconfirmed; details: for % hA1: percentage inhibition of specific binding of [3H]CCPA; for Ki: nM ± SEM, read-out: Ki(nM) hA1
T2 construct: expressed in transfected cells; host or cells: CHO cells (ATCC No. CCL-61)
T2 sequence (P30542 1-326): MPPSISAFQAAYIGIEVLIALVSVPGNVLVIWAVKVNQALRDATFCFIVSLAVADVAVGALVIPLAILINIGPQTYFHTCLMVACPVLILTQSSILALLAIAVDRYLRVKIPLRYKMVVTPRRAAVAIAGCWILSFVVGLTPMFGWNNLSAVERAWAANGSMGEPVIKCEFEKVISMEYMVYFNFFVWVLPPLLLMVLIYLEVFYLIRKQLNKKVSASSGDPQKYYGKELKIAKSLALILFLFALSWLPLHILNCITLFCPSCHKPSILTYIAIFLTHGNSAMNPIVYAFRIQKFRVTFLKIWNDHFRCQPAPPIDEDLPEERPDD
Method: as §1

A2A adenosine receptor = biological target: T3, A2A adenosine receptor (Homo sapiens, UniProt P29274); assay: Radioligand binding affinity, A2A adenosine receptor ([3H]CGS-21680, HEK 293 cell); details: for % hA2A: percentage inhibition of specific binding of 10 µM; for Ki: nM ± SEM, read-out: Ki(nM) hA2A
T3 construct: expressed in transfected cells; host or cells: HEK 293 cell
T3 sequence (P29274 whole entry): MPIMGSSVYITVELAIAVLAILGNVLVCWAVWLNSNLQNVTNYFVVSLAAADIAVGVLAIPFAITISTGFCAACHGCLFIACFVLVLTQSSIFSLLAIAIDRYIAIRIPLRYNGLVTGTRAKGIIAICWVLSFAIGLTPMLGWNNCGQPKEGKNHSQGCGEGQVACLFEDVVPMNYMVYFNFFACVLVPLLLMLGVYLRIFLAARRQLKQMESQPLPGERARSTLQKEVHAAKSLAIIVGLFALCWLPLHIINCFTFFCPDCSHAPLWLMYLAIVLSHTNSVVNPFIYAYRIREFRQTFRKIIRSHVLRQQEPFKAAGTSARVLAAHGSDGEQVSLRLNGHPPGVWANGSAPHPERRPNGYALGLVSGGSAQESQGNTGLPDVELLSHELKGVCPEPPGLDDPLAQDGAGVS
Method: The adenosine derivatives of the present invention were assayed for binding affinity and selectivity for A1, A2A and A3 receptors among human adenosine receptor (hAR) as follows.
Adenosine deaminase was added alone or in combination with a radioactive ligand when cerebral meninges were incubated at 30° C. for 30 min. Each of the compounds synthesized in the examples was measured for IC50 at least 6 different concentrations, and the measurements were analyzed using SigmaPlot software to determine Ki values.

[1] = system: TPA-induced inflammation of the mouse ear; assay: Anti-inflammatory activity, TPA-induced mouse ear inflammation; format: in vivo, ICR mice; details: for anti-inflammatory activity: 0.5% in acetone, 20 µl, FIG. 11 (Exp. Ex. 12)
Method: The adenosine derivatives of the present invention were examined for anti-inflammatory activity in the following animal test. Seven-week-old male ICR mice were treated with TPA (12-O-tetradecanoylphorbol-13-acetate, 20 µl) in the right ear. […] Hydrocortisone was used at the same concentration as a control.
6 hrs after treatment with TPA, the mice were secondarily treated with the adenosine derivatives of the present invention. 24 hrs after TPA treatment, test animals were euthanized using a cervical dislocation method. Samples were obtained from the right ear using a 6 mm diameter punch. The activity was observed by measuring the ear sample using a microbalance. Percentages of inhibition were calculated using the following Equation 1. The compositions and amounts used in these experiments are summarized in Tables 14 to 17 and the anti-inflammatory activities thereof are shown in FIGS. 10 to 13. % Inhibition = (1−Rt.Ear(Test−Nontreated))/(Rt.Ear(TPAonly−Nontreated)) [formula]

[2] = 0.5% in a mixture of DMSO and acetone (1:9), FIG. 13 (Exp. Ex. 14)
[3] = 0.5% in a mixture of distilled water and acetone (1:4), FIG. 12 (Exp. Ex. 13)

| SMILES | Ki (A3 adenosine receptor) [nM] | % hA1 (A1 adenosine receptor) [%] | % hA2A (A2A adenosine receptor) [%] | Ki (A1 adenosine receptor) [nM] | Ki (A2A adenosine receptor) [nM] | percentages of inflammation inhibition [1, 2] [%] | percentages of inflammation inhibition [1, 3] [%] | % hA3 (A3 adenosine receptor; percentage inhibition of specific binding) [%] | anti-inflammatory activity [1] |
| --- | --- | --- | --- | --- | --- | --- | --- | --- | --- |
| O[C@@H]1[C@H](O)CS[C@H]1n1cnc2c(NCc3cccc4ccccc34)nc(Cl)nc21 [Example 8, (2R,3R,4S)-2-(2-chloro-6-(naphthalen-1-ylmethylamino)-9H-purin-9-yl)tetrahydrothiophen-3,4-diol] | 24.8 ± 8.1 | 22.0 | -8.3 | – | – | – | – | – | – |
| O[C@@H]1[C@H](O)CS[C@H]1n1cnc2c(NCc3cccc(Cl)c3)ncnc21 [Example 12, (2R,3R,4S)-2-(6-(3-chlorobenzylamino)-9H-purin-9-yl)tetrahydrothiophen-3,4-diol] | 1.5 ± 0.4 | – | – | 860 ± 210 | 440 ± 110 | – | – | – | – |
| O[C@@H]1[C@H](O)CO[C@H]1n1cnc2c(NCc3cccc(I)c3)nc(Cl)nc21 [Example 16, (2R,3R,4R)-2-(2-chloro-6-(3-iodobenzylamino)-9H-purin-9-yl)tetrahydrofuran-3,4-diol] | 42.9 ± 8.9 | 37.7 | 28.6 | – | – | 79 | – | – | – |
| O[C@@H]1[C@H](O)CS[C@H]1n1cnc2c(NCc3cccc(F)c3)ncnc21 [Example 11, (2R,3R,4S)-2-(6-(3-fluorobenzylamino)-9H-purin-9-yl)tetrahydrothiophen-3,4-diol] | 7.3 ± 0.6 | – | – | 1430 ± 420 | 1260 ± 330 | – | – | – | – |
| COc1ccccc1CNc1nc(Cl)nc2c1ncn2[C@@H]1SC[C@@H](O)[C@H]1O [Example 7, (2R,3R,4S)-2-(2-chloro-6-(2-methoxybenzylamino)-9H-purin-9-yl)tetrahydrothiophen-3,4-diol] | 19.9 ± 7.1 | 9.4 | 17.5 | – | – | – | 53 | – | – |
| O[C@@H]1[C@H](O)CO[C@H]1n1cnc2c(NCc3cccc(Br)c3)nc(Cl)nc21 [Example 15, (2R,3R,4R)-2-(6-(3-bromobenzylamino)-2-chloro-9H-purin-9-yl)tetrahydrofuran-3,4-diol] | 13 ± 6.9 | 39.8 | 22.8 | – | – | 59 | – | – | – |
| O[C@@H]1[C@H](O)CS[C@H]1n1cnc2c(NCc3ccccc3Cl)nc(Cl)nc21 [Example 5, (2R,3R,4S)-2-(2-chloro-6-(2-chlorobenzylamino)-9H-purin-9-yl)tetrahydrothiophen-3,4-diol] | 25.8 ± 6.3 | 12.8 | – | – | 1600 ± 135 | – | 17 | – | – |
| O[C@@H]1[C@H](O)CS[C@H]1n1cnc2c(NCc3cccc(Br)c3)nc(Cl)nc21 [Example 3, (2R,3R,4S)-2-(6-(3-bromobenzylamino)-2-chloro-9H-purin-9-yl)tetrahydrothiophen-3,4-diol] | 8.99 ± 5.17 | 34.2 | 18.4 | – | – | – | – | – | – |
| CNc1nc(Cl)nc2c1ncn2[C@@H]1SC[C@H](O)[C@@H]1O [Example 10, 2-(2-chloro-6-methylamino-purin-9-yl)tetrahydrothiophen-3,4-diol] | 3.69 ± 0.25 | 55.4 ± 1.8 | 45.0 ± 1.4 | – | – | – | – | – | – |
| O=C(O)c1cccc(CNc2nc(Cl)nc3c2ncn3[C@@H]2SC[C@@H](O)[C@H]2O)c1 [Example 9, 3-((2-chloro-9-((2R,3R,4S)-3,4-dihydroxytetrahydrothiophen-2-yl)-9H-purine-6-ylamino)methyl)benzoic acid] | – | 13.1 | -0.18 | – | – | – | – | 41.5 | – |
| O[C@@H]1[C@H](O)CS[C@H]1n1cnc2c(NCc3cccc(F)c3)nc(Cl)nc21 [Example 1, (2R,3R,4S)-2-(2-chloro-6-(3-fluorobenzylamino)-9H-purin-9-yl)tetrahydrothiophen-3,4-diol] | 7.4 ± 1.3 | 19.8 | 47.6 | – | – | – | – | – | increased |
| COc1ccc(Cl)cc1CNc1nc(Cl)nc2c1ncn2[C@@H]1SC[C@@H](O)[C@H]1O [Example 6, (2R,3R,4S)-2-(2-chloro-6-(5-chloro-2-methoxybenzylamino)-9H-purin-9-yl)tetrahydrothiophen-3,4-diol] | 12.7 ± 3.7 | 23.8 | – | – | 4020 ± 1750 | – | 34 | – | increased |
| O[C@@H]1[C@H](O)CS[C@H]1n1cnc2c(NCc3cccc(Br)c3)ncnc21 [Example 13, (2R,3R,4S)-2-(6-(3-bromobenzylamino)-9H-purin-9-yl)tetrahydrothiophen-3,4-diol] | 6.8 ± 3.4 | – | – | 790 ± 190 | 420 ± 32 | – | – | – | – |
